Laboratory results as given in patent publication US8460718B2, “Synergistic compositions and methods” (LycoRed Ltd., priority 2011, dated 2013).

Key:
[1] = test system: MDA-MB-231 human breast cancer; details: MDA-MB-231, 16 μM; cited from earlier work
[2] = test system: LNCaP, human androgen dependent prostate cancer cells; assay: LNCaP cell proliferation, [3H]thymidine incorporation assay; assay type: cell-based; details: LNCaP cells stimulated by 1 nM DHT, treated 3 days; for cell growth inhibition (thymidine incorporation), phytosterol alone: phytosterol alone 0-50 μM
Method: In these experiments, LNCaP cells were preincubated for 24 hours in 0.5% serum and then growth (quantified by measuring thymidine incorporation) was stimulated by 1 nM DHT. Stimulated cells were treated for 3 days with the indicated concentration of the phytosterols alone, or in combination with 0.4 μM lycopene. Data presented are the mean±SE of 2-3 independent experiments performed in quadruplicates.
Cell culture and cell proliferation assay: LNCaP, human androgen dependent prostate cancer cells, were purchased from American Type Culture Collection (Rockwell, Md.). Cells were grown in RPMI1640 containing 0.6 μg/ml insulin. All culture media were supplemented with L-glutamine (2 mM), penicillin (100 U/ml), streptomycin (0.1 mg/ml), nystatin (12.5 μg/ml), and 10% FCS. Cells were seeded in medium containing 3% FCS or 3% DCC phenol red free medium and 10 mM HEPES onto 96- and 6-multiwell plates (4-7×10^3 and 1.7×10^5 cells/well, respectively). One day later, the medium was changed to 0.5% FCS or 0% medium for an additional one day of incubation. Then the medium was changed to one containing the micronutrients (phytosterols, carotenoids, phospholipids, etc.) at the indicated concentrations and incubation was continued for 1-3 days. In order to assure that the agent was continuously present during prolonged incubation, the medium was replaced daily with one containing fresh carotenoids. Lycopene was dissolved in tetrahydrofuran at a concentration of 2 mM and stored at −20° C. Immediately before the experiment, the stock solution was added to the cell culture medium. The final concentration of lycopene in the medium was measured by spectrophotometry after extraction in 2-propanol and n-hexane:dichloromethane [3H]thymidine incorporation assay was performed in 96-multiwell plates. Cells were incubated with 1.25-2.50 uCi/well of [3H]thymidine (specific radioactivity 5 mCi/mmol in μCi/well) for one to four hours. The nucleotide incorporation was stopped by addition of unlabeled thymidine (0.5 μmol). The cells were then trypsinized and collected on a glass-fiber filter using a cell harvester (Inotech). Radioactivity was determined by a radioactive image analyzer (BAS 1000, Fuji).
All procedures were performed under dim light in order to prevent carotenoid degradation.
FIGS. 1A-1E. LNCaP cell were preincubated for 24 hours in 0.5% serum and then growth (thymidine incorporation) was stimulated by 1 nM DHT. Stimulated cells were treated for 3 days with the indicated concentrations of the phytosterols alone, or in combination with 0.4 μM Lycopene. Data presented are the mean±SE of 2-3 independent experiments performed in quadruplicates.

[3] = in animals; cited from earlier work
[4] = in vivo; cited from earlier work
[5] = test system: HT-29 human colon cancer; details: HT-29, 16 μM; cited from earlier work
[6] = test system: phorbol esters (PMA)-stimulated macrophages (RAW 264.7 cells); details: cited from earlier work
[7] = test system: LNCaP human prostate cancer; details: 16 μM; cited from earlier work
[8] = test system: MCF-7 human breast cancer; details: MCF-7, 0.001 to 150 μM; cited from earlier work
[9] = RAW 264.7, effects 3-6 hours after preincubation

Structure (SMILES): CC(C)[C@H](C)CC[C@@H](C)[C@H]1CC[C@H]2[C@@H]3CC=C4C[C@@H](O)CC[C@]4(C)[C@H]3CC[C@]12C [Campesterol]
- growth [1]: unchanged
- cell growth inhibition (thymidine incorporation), phytosterol alone [2]: did not have any effect on cell growth inhibition
- intestinal absorption [3]: better absorbed than β-sitosterol

Structure (SMILES): CC(C)CCC[C@@H](C)[C@H]1CC[C@H]2[C@@H]3CC=C4C[C@@H](O)CC[C@]4(C)[C@H]3CC[C@]12C [cholesterol, reference compound]
- growth [1]: unchanged
- absorption [4]: 35-70%

Structure (SMILES): CC[C@H](CC[C@@H](C)[C@H]1CC[C@H]2[C@@H]3CC=C4C[C@@H](O)CC[C@]4(C)[C@H]3CC[C@]12C)C(C)C [β-sitosterol]
- growth [1]: inhibition
- growth [5]: inhibition
- H2O2 production induced by PMA [6, 9]: decrease
- O2(−) production induced by PMA [6, 9]: decrease
- NO release induced by PMA ([6]; RAW 264.7): reduced
- inducible nitric oxide synthase (iNOS) levels ([6]; RAW 264.7): impairment
- PSA levels [7]: reduced PSA
- growth [7]: inhibition;
- cell growth inhibition (thymidine incorporation), phytosterol alone [2]: inhibited prostate cancer cell proliferation in a dose dependent manner
- growth [8]: increase

Structure (SMILES): CC(C)=CCC/C(C)=C/C=C/C(C)=C/C=C/C(C)=C/C=C/C=C(C)/C=C/C=C(C)/C=C/C=C(\C)CCC=C(C)C [lycopene]
- cell growth inhibition (thymidine incorporation), lycopene alone ([2]; 0.4 μM lycopene alone): did not inhibit proliferation

Structure (SMILES): CC[C@H](/C=C/[C@@H](C)[C@H]1CC[C@H]2[C@@H]3CC=C4C[C@@H](O)CC[C@]4(C)[C@H]3CC[C@]12C)C(C)C [Stigmasterol]
- cell growth inhibition (thymidine incorporation), phytosterol alone [2]: did not have any effect on cell growth inhibition
- intestinal absorption [3]: only absorbed minimally
